Test systems include DMS 114 small cell lung; MDA-N; DLD-1 colon; XF 498 CNS; KM20L2 colon; RXF-631 renal; DMS 273 small cell lung; SNB-78 CNS; HOP-18 NSCLC.
Common to all, as to experiment: NCI anticancer screen, dose series, 48 h

Several values for one entry are separate records, joined by “and”; a condition that tells them apart may be missing. Identical values can stand only once.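 Cells were grown in 96-well plates and exposed to each compound for 48 hours at five concentrations; endpoints were interpolated linearly between bracketing concentrations, or set to the highest concentration if not reached. GI50 marks 50% less growth. Definition used: TGI = concentration required for complete inhibition of growth.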 Where a SMILES comes first, the peptide text is derived from it. [ ]: non-standard residue; d: D form. The star is where a group is joined. NMeF = CN[C@@H](Cc1ccccc1)C(=O)O; NMeV = CN[C@H](C(=O)O)C(C)C; Boc = CC(C)(C)OC(=O)*; OBn = c1ccc(CO*)cc1

Regarding `Brc1ccccc1C=NC12CC3CC(CC(C3)C1)C2`, the TGI with DMS 114 small cell lung is more than 100 µM; in the assay on MDA-N, more than 73.8 µM; with DLD-1 colon, more than 100 µM; in the assay with XF 498 CNS it was more than 100 µM; in the assay on KM20L2 colon, more than 100 µM; in the assay with RXF-631 renal it was more than 100 µM. Also, the TGI in the assay on DMS 273 small cell lung, in the assay with SNB-78 CNS and with HOP-18 NSCLC was more than 100 µM throughout.

In the case of `CC(C)[C@@H](C(=O)N1CCC[C@H]1C(=O)OCc1ccccc1)N(C)C(=O)[C@H](C(C)C)N(C)C(=O)[C@H](Cc1ccccc1)N(C)C(=O)[C@H](NC(=O)OC(C)(C)C)C(C)C` (Boc-[dV][NMeF][NMeV][NMeV]P-OBn), the TGI in the assay on DMS 114 small cell lung, in the assay with DLD-1 colon, with XF 498 CNS, in the assay with KM20L2 colon, in the assay on DMS 273 small cell lung and with SNB-78 CNS was more than 100 µM throughout. The same compound showed a TGI with HOP-18 NSCLC of more than 100 µM.

Take `O=C1NC(c2c(Cl)cccc2Cl)Nc2ccccc21` (stereo not given): the TGI in the assay on MDA-N was found to be 70.5 µM.

On to `OCC1OC2OC3C(CO)OC(OC4C(CO)OC(OC5C(CO)OC(OC6C(CO)OC(OC7C(CO)OC(OC1C(O)C2O)C(O)C7O)C(O)C6O)C(O)C5O)C(O)C4O)C(O)C3O` (stereo not given) (tested in a mixture with another compound), for which the TGI in the assay on MDA-N amounted to 39.9 µM.

In the case of `Cc1ccc(C(=O)C#Cc2c[nH]c(=O)[nH]c2=O)cc1`, the TGI is 22.1 µM in the assay on DLD-1 colon, 38.6 µM in the assay with DMS 273 small cell lung, 28.5 µM in the assay on SNB-78 CNS and 32.6 µM in the assay on HOP-18 NSCLC.

As for `CCC(c1ccc2cc(O)ccc2c1)C(C)(C)C(=O)O` (stereo not given), the TGI in the assay with MDA-N is more than 100 µM.

Regarding `COC(=O)C(Cc1ccccc1)NC(=O)Cn1ccnc1[N+](=O)[O-]` (stereo not given), the TGI in the assay with DMS 114 small cell lung, with XF 498 CNS, in the assay with KM20L2 colon, in the assay on RXF-631 renal, in the assay on DMS 273 small cell lung and in the assay on HOP-18 NSCLC was more than 100 µM in each case.

For `CCC[CH2][Sn]1([CH2]CCC)[O]CC(CN2CCOCC2)[O]1` (stereo not given), the GI50 was 1.36 µM with DMS 114 small cell lung; 4.46 µM with DLD-1 colon; 1.62 µM in the assay on XF 498 CNS; 5.35 µM in the assay with KM20L2 colon; 1.41 µM in the assay with RXF-631 renal; 3.15 µM in the assay on DMS 273 small cell lung. The GI50 with SNB-78 CNS is 2.12 µM. Also, the TGI was determined as 4.35 µM in the assay with DMS 114 small cell lung; 16.8 µM in the assay with DLD-1 colon; 3.11 µM with XF 498 CNS; 19.1 µM in the assay with KM20L2 colon; 2.71 µM in the assay with RXF-631 renal; 12 µM in the assay with DMS 273 small cell lung. The compound also gave a TGI in the assay on SNB-78 CNS of 6.36 µM.

In the case of `COC(=O)C1=C(CS(=O)c2ccc([N+](=O)[O-])cc2[N+](=O)[O-])ON(C)C1c1ccccc1` (stereo not given), the TGI in the assay with DMS 114 small cell lung was more than 66.4 µM; in the assay on DLD-1 colon it was more than 100 µM; with XF 498 CNS, more than 100 µM; in the assay on KM20L2 colon, more than 72.6 µM; in the assay with RXF-631 renal, more than 100 µM; with DMS 273 small cell lung, more than 80.6 µM. For the same compound, the TGI with SNB-78 CNS is more than 96.5 µM; with HOP-18 NSCLC it was more than 89.7 µM.

Take `COc1ccccc1C(N)c1ccccc1` (stereo not given): the TGI with DMS 114 small cell lung, with DLD-1 colon, with KM20L2 colon, in the assay on DMS 273 small cell lung, in the assay on SNB-78 CNS and in the assay with HOP-18 NSCLC was more than 100 µM each time.

As to `COc1ccc(-c2cc(-c3cc(C)ccc3O)[nH]c(=O)n2)cc1`, the TGI in the assay on DMS 114 small cell lung, in the assay with DLD-1 colon, in the assay with KM20L2 colon, in the assay on RXF-631 renal, in the assay with DMS 273 small cell lung and in the assay with SNB-78 CNS was more than 100 µM throughout. The same compound yielded a TGI with HOP-18 NSCLC of more than 100 µM.

As to `COc1ccc(NC(=O)CC(=O)N2N=C(N(CCC#N)c3cccc(C)c3)CC2c2ccccc2)cc1` (stereo not given), the TGI in the assay on DLD-1 colon, in the assay with KM20L2 colon, with DMS 273 small cell lung, in the assay with SNB-78 CNS and with HOP-18 NSCLC was more than 100 µM in each case.

`CCOC(=O)N[C@@H]1C2CC(=O)C(O2)[C@@H]1OC` (stereo not given in full): the TGI with DLD-1 colon, with KM20L2 colon, with SNB-78 CNS and with HOP-18 NSCLC was more than 100 µM each time.

As for `COC1OC(COS(=O)(=O)c2ccc(C)cc2)C(O)C(OS(=O)(=O)c2ccc(C)cc2)C1OS(=O)(=O)c1ccc(C)cc1` (stereo not given), the TGI with DMS 114 small cell lung, with DLD-1 colon, with KM20L2 colon, in the assay on RXF-631 renal, in the assay with DMS 273 small cell lung and in the assay with SNB-78 CNS was more than 100 µM throughout. Moreover, the TGI in the assay with HOP-18 NSCLC was more than 100 µM.

As for `NCCCNCCSSC/C=C\CSSCCNCCCN`, the TGI in the assay on DMS 114 small cell lung, in the assay with DLD-1 colon, in the assay on XF 498 CNS, in the assay with KM20L2 colon, in the assay with DMS 273 small cell lung and with SNB-78 CNS was more than 100 µM each time. In the assay with HOP-18 NSCLC, this compound showed a TGI of more than 100 µM. The GI50 in the assay with KM20L2 colon is > 100 µM and 38.9 µM; with SNB-78 CNS it was 55 µM and 24.8 µM.

Take `CC(C(=O)O)/C(=C\c1ccc2c(c1)OCO2)C(=O)O` (stereo not given): the TGI with DMS 114 small cell lung, in the assay with MDA-N, in the assay with DLD-1 colon, in the assay with XF 498 CNS, in the assay on KM20L2 colon and in the assay on RXF-631 renal was more than 100 µM in each case. Moreover, the TGI in the assay on DMS 273 small cell lung and with HOP-18 NSCLC was more than 100 µM throughout.

In the case of `NC(=O)CCC(NC(=O)Cc1ccccc1)C(=O)O` (stereo not given) (tested in a mixture with another compound), the TGI with DMS 114 small cell lung is more than 8130 µM; in the assay with DLD-1 colon, more than 8130 µM; with KM20L2 colon, more than 8130 µM; with DMS 273 small cell lung it was more than 2470 µM; with HOP-18 NSCLC it was more than 8130 µM.

Consider `CC(=O)c1ccc(NC(=O)C(=O)C(C(=O)c2ccc(Cl)c(Cl)c2)C2OC(=O)c3ccccc32)cc1` (stereo not given), for which the TGI with DMS 114 small cell lung was 46.3 µM; in the assay with DLD-1 colon, 55.8 µM; with XF 498 CNS, more than 100 µM; in the assay on KM20L2 colon it was more than 100 µM; in the assay on DMS 273 small cell lung it was 68.5 µM; with SNB-78 CNS, more than 100 µM. The TGI in the assay with HOP-18 NSCLC is 90.6 µM.

Take `COc1cc(Nc2nc3cc(C(F)(F)F)ccc3nc2-c2ccccc2)cc(OC)c1OC`: the TGI in the assay with DMS 114 small cell lung is more than 100 µM; in the assay with DLD-1 colon, more than 100 µM; with XF 498 CNS, 55.2 µM; in the assay on RXF-631 renal, more than 100 µM; in the assay with DMS 273 small cell lung, more than 100 µM; in the assay on SNB-78 CNS, more than 100 µM.

Source of the values: PubChem BioAssay (NCI).
